The text below walks through data of ChEMBL document CHEMBL4619799, “Mechanistic Insight into Antiretroviral Potency of 2'-Deoxy-2'-β-fluoro-4'-azidocytidine (FNC) with a Long-Lasting Effect on HIV-1 Prevention” (J Med Chem, 2020).

Series [1] in a line: Effect on CD25 surface expression in IL2-induced human PBMC-derived CD4-positive T cells at 100 nM measured after 48 hrs by immunostaining based flow cytometry. The format is ADME. As to conditions: 0.1 µM. In general terms: Flow cytometry measures light scatter and fluorescence of single cells or particles in a stream.
Series [2] in a line: Ratio of Cmax in monkey plasma at 6 mg/kg, po administered as single dose measured after 1 hr to Cmax in monkey plasma at 6 mg/kg, po administered as single dose measured after 24 hrs. The format is ADME, organism-based, Macaca mulatta. The settings on record: rhesus monkey, in vivo.
Series [3] in a line: Tmax in monkey plasma at 6 mg/kg, po administered as single dose by LC-MS/MS analysis. Type of series: ADME, organism-based, Macaca mulatta. As to conditions: rhesus monkey.
In series [4] the test system is Human immunodeficiency virus 1. In words: Potency index, ratio of lamivudine EC50 to test compound EC50 for antiviral activity against VSVG pseudotyped HIV1 infected in HEK293 cells. Type of series: functional.
In series [5] the test system is Human immunodeficiency virus 1. The experiment in a line: Antiviral activity against JRFL pseudotyped HIV1 infected in human Hut/CCR5 cells assessed as time needed to reach 50% reduction of virus infection at 1 nM incubated with cells for 4 hrs prior to compound washout followed by viral infection and measured after 72 hrs by luciferase reporter gene assay. The format is functional. In general terms: In a reporter assay the amount or activity of a reporter protein is the signal.

Series [6] is described as follows: Tmax in monkey plasma at 1 mg/kg, po administered as single dose by LC-MS/MS analysis. Type of series: ADME, organism-based, Macaca mulatta. As to conditions: rhesus monkey.
Series [7] in a line: Cmax in monkey PBMC assessed as FNC-TP level at 1 mg/kg, po administered as single dose by LC-MS/MS analysis. The settings on record: rhesus monkey, in vivo. On the set-up: dose 1 mg/kg, route oral. The format is ADME, organism-based, Macaca mulatta.
Series [8] in a line: Elimination half life in monkey PBMC assessed as FNC-TP level at 6 mg/kg, po administered as single dose by LC-MS/MS analysis. The format is ADME, organism-based, Macaca mulatta. The settings on record: rhesus monkey, in vivo.
Series [9] can be described thus: Effect on CD69 surface expression in IL2-induced human PBMC-derived CD4-positive T cells at 100 nM measured after 48 hrs by immunostaining based flow cytometry. The format is ADME. As to conditions: 0.1 µM.
A short description of series [10]: AUC (0 to 24 hrs) in monkey PBMC assessed as FNC-TP level at 6 mg/kg, po administered as single dose by LC-MS/MS analysis. Type of series: ADME, organism-based, Macaca mulatta. On the set-up: dose 6 mg/kg, time < 24 hr, route oral. The settings on record: rhesus monkey, in vivo.
Series [11] is described as follows: Cmax in monkey PBMC assessed as FNC-TP level at 6 mg/kg, po administered as single dose by LC-MS/MS analysis. The format is ADME, organism-based, Macaca mulatta. On the set-up: dose 6 mg/kg, route oral. The settings on record: rhesus monkey, in vivo.

Regarding `[N-]=[N+]=N[C@]1(CO)O[C@@H](n2ccc(N)nc2=O)[C@@H](F)[C@@H]1O` [RO-0622], the Activity entry in [1] and in series [9] was “Non-Toxic” in each case. Moreover, the Ratio in series [2] is given as 320. The Tmax in [3] and in series [6] was 1 h throughout. The “Ratio EC50” value in series [4] was found to be 4700. In addition, the Time in series [5] stood at 83.14 h. Further, the Cmax amounted to 2.1 nM in series [7] and 4.07 nM in [11]. The “beta t1/2” value in [8] was 112.4 h. In [10], the AUC was found to be 0.24922 µM·h.

As a reminder, the Tmax is the time at which the peak concentration occurs. A word on the Cmax: it is the maximum level reached in the sampled fluid or tissue. Broadly, the AUC is the area under the concentration-time curve, a measure of exposure.
